In article PMC12624794, “Mechanism of inhibition of acid-mediated transthyretin aggregation by designed peptides” (The Journal of Biological Chemistry, 2025):

Columns and labels:
seeded TTR aggregation = details: extracted amyloidogenic fibrils from patients as seeds, in vitro; cited from earlier work
TTR tetramer = details: cited from earlier work
From the text: (§1) However, the efficacy of tafamidis is reduced for patients with TTR amyloidosis diagnosed at a later stage, when severe organ damage caused by TTR aggregates cannot be reversed ([12]).

[1] = system: patients with TTR amyloidosis; details: TTR amyloidosis diagnosed at a later stage; cited from earlier work
From the text: as §1

[2] = molecular target: T1, TTR^F (C10S-trifluoroacetyl-S85C TTR) (Homo sapiens, UniProt P02766, C30S/S105C); assay: Real-time 19F-NMR aggregation kinetics at 310 K, pH 4.4 (three-state model); assay type: biochemical; details: 1 μM peptide; pH 4.4, 310 K
T1 construct: made in house
Description: At acidic pH, tetramer dissociation is favored, the misfolding of the monomeric intermediate is facilitated, and the downhill aggregation is accelerated ([1]). We used a previously reported ^19F-labeled TTR construct, C10S-trifluoroacetyl-S85C (denoted as TTR^F), to quantify TTR aggregation kinetics using real-time ^19F-NMR. […] To quantify how the presence of peptides alters TTR aggregation kinetics, we added 1 μM of each TabH2 and TabF2 as well as 1 μM ffTAD1 to 2.5 μM TTR^F (tetramer concentration) at pH 4.4 and 310 K and monitored time-dependent population kinetics for tetramer, monomer, and NMR-invisible aggregates (Fig. 3, A and B). […]
To gain kinetic insights into the aggregation pathway, we fit the time-dependent aggregation data of TTR^F using a previously reported three-state kinetic model, tetramer ↔ monomer ↔ aggregate ([18]), where tetramer and monomer are NMR-visible, and aggregates are NMR-invisible. […] Using this model, fits of the time-dependent population changes determined from peak areas yield four first-order apparent rates. […]
^19F-NMR spectra were acquired using Bruker Avance 600 or Avance 700 MHz spectrometers as previously described ([18]). […] Weighted average chemical shift perturbations (CSPs) for backbone amides were calculated using (Δδ^1H)^2+(Δδ^15N/5)^2 , where Δ δ means chemical shift differences for either ^1H or ^15N with and without peptides.

SMILES: O=C(O)c1ccc2nc(-c3cc(Cl)cc(Cl)c3)oc2c1 [Tafamidis]
- inhibition of seeded TTR aggregation (seeded TTR aggregation): does not effectively inhibit seeded TTR aggregation
- binding to TTR tetramer (TTR tetramer): binds to the central cavity of the TTR tetramer
- effect on tetramer dissociation (TTR tetramer; stabilization of the tetramer): suppresses dissociation to monomers
- efficacy in late-diagnosed patients [1]: reduced

SMILES: CC(C)[C@H](NC(=O)[C@H](C)NC(=O)[C@H](Cc1ccc(O)cc1)NC(=O)[C@H](CO)NC(=O)[C@@H](NC(=O)[C@@H]1CCCN1C(=O)[C@H](CC(N)=O)NC(=O)[C@@H](NC(=O)[C@@H](NC(=O)[C@H](Cc1ccc(O)cc1)NC(=O)[C@H](CO)NC(=O)[C@H](CCCNC(=N)N)NC(=O)[C@H](CCCNC(=N)N)NC(=O)[C@H](CCCNC(=N)N)NC(=O)[C@H](CCCNC(=N)N)NC(=O)[C@H](CCC(=O)O)NC(=O)[C@@H](NC(=O)[C@H](CO)NC(=O)CNC(=O)CNC(=O)CNC(=O)[C@H](CCC(=O)O)NC(=O)[C@@H](NC(=O)[C@H](Cc1ccccc1)NC(=O)[C@H](CCC(=O)O)NC(=O)[C@@H](NC(=O)[C@H](Cc1ccccc1)NC(=O)[C@@H]1CCCN1C(=O)[C@H](Cc1c[nH]cn1)NC(=O)[C@H](C)NC(=O)[C@@H](NC(=O)[C@H](Cc1c[nH]cn1)NC(=O)[C@H](CCCNC(=N)N)NC(=O)[C@H](CCCNC(=N)N)NC(=O)[C@H](CCCNC(=N)N)NC(=O)[C@H](CCCNC(=N)N)NC(=O)[C@H](Cc1c[nH]cn1)NC(=O)[C@H](Cc1c[nH]cn1)NC(=O)[C@H](Cc1c[nH]cn1)NC(=O)[C@H](Cc1c[nH]cn1)NC(=O)[C@H](Cc1c[nH]cn1)NC(=O)[C@@H](N)Cc1c[nH]cn1)C(C)C)C(C)C)[C@@H](C)O)[C@@H](C)O)C(C)C)[C@@H](C)O)[C@@H](C)O)C(=O)N[C@H](C(=O)O)[C@@H](C)O [ffTAD1]
- reduction of steady-state population of NMR-invisible aggregates vs TTR^F-only control [2]: ~8%
